Holding throughout (type): binding
For one assay, the target named is T1, JAK2 (Homo sapiens, UniProt O60674).
T1 construct: endogenous in cells; host or cells: Molt4 (ATCC CRL-1582) and Ramos (ATCC CRL-1596), mixed lysate 1:2
The assay is described as follows: Kinobeads assay, JAK2. As to conditions: mixed Molt4/Ramos lysate, read-out: Inhibition values (IC50) JAK2. The protocol:
(§1) The compounds of the present invention as described in the previous examples were tested in a Kinobeads™ assay as described for ZAP-70 (WO-A 2007/137867). Briefly, test compounds (at various concentrations) and the affinity matrix with the immobilized aminopyrido-pyrimidine ligand 24 were added to cell lysate aliquots and allowed to bind to the proteins in the lysate sample. After the incubation time the beads with captured proteins were separated from the lysate. Bound proteins were then eluted and the presence of JAK1, JAK2, JAK3 and TYK2 was detected and quantified using specific antibodies in a dot blot procedure and the Odyssey infrared detection system. Dose response curves for individual kinases were generated and IC50 values calculated. Kinobeads™ assays for ZAP-70 (WO-A 2007/137867) and for kinase selectivity profiling (WO-A 2006/134056) have been previously described.
(§2) The affinity matrix was washed two times with 15 mL of lx DP buffer containing 0.2% NP40 (IGEPAL® CA-630, Sigma, #13021) and then resuspended in 1×DP buffer containing 0.2% NP40 (3% beads slurry).
(§3) 5×DP buffer: 250 mM Tris-HCl pH 7.4, 25% Glycerol, 7.5 mM MgCl2, 750 mM NaCl, 5 mM Na3VO4; filter the 5×DP buffer through a 0.22 μm filter and store in aliquots at −80° C. The 5×DP buffer is diluted with H2O to 1×DP buffer containing 1 mM DTT and 25 mM NaF.
(§4) Stock solutions of test compounds were prepared in DMSO. In a 96 well plate […] solution of diluted test compounds at 5 mM in DMSO were prepared. Starting with this solution a 1:3 dilution series (9 steps) was prepared. For control experiments (no test compound) a buffer containing 2% DMSO was used.
(§5) Molt4 cells (ATCC catalogue number CRL-1582) and Ramos cells (ATCC catalogue number CRL-1596) were grown in 1 L Spinner flasks (Integra Biosciences, #182101) in suspension in RPMI 1640 medium (Invitrogen, #21875-034) supplemented with 10% Fetal Bovine Serum (Invitrogen) at a density between 0.15×10^6 and 1.2×10^6 cells/mL. Cells were harvested by centrifugation, washed once with 1×PBS buffer (Invitrogen, #14190-094) and cell pellets were frozen in liquid nitrogen and subsequently stored at −80° C. Cells were homogenized in a Potter S homogenizer in lysis buffer: 50 mM Tris-HCl, 0.8% NP40, 5% glycerol, 150 mM NaCl, 1.5 mM MgCl2, 25 mM NaF, 1 mM sodium vanadate, 1 mM DTT, pH 7.5. One complete EDTA-free tablet (protease inhibitor cocktail, Roche Diagnostics, 1873580) per 25 mL buffer was added. The material was dounced 10 times using a mechanized POTTER S, transferred to 50 mL falcon tubes, incubated for 30 minutes on ice and spun down for 10 minutes at 20,000 g at 4° C. (10,000 rpm in Sorvall SLA600, precooled). The supernatant was transferred to an ultracentrifuge (UZ)-polycarbonate tube (Beckmann, 355654) and spun for 1 hour at 100.000 g at 4° C. (33.500 rpm in Ti50.2, precooled). The supernatant was transferred again to a fresh 50 mL falcon tube, the protein concentration was determined by a Bradford assay (BioRad) and samples containing 50 mg of protein per aliquot were prepared. The samples were immediately used for experiments or frozen in liquid nitrogen and stored frozen at −80° C.
(§6) Cell lysate (approximately 50 mg protein per plate) was thawed in a water bath at room temperature and then stored on ice. To the thawed cell lysate 1×DP 0.8% NP40 buffer containing protease inhibitors (1 tablet for 25 mL buffer; EDTA-free protease inhibitor cocktail; Roche Diagnostics 1873580) was added in order to reach a final protein concentration of 10 mg/mL total protein. The diluted cell lysate was stored on ice. Mixed Molt4/Ramos lysate was prepared by combining one volume of Molt4 lysate and two volumes of Ramos lysate (ratio 1:2).
(§7) To a 96 well filter plate (Multiscreen HTS, BV Filter Plates, Millipore #MSBVN1250) were added per well: 100 μL affinity matrix (3% beads slurry), […], of compound solution, and 50 μL of diluted lysate. […]

The next assay concerns the target T2, TYK2 (Homo sapiens, UniProt P29597).
T2 construct: endogenous in cells; host or cells: Molt4 (ATCC CRL-1582) and Ramos (ATCC CRL-1596), mixed lysate 1:2
The assay is described as follows: Kinobeads assay, TYK2. As to conditions: mixed Molt4/Ramos lysate, read-out: Inhibition values (IC50) TYK2. The protocol: as §1, §2, §3, §4, §5, §6, §7

Another assay has as its target T3, JAK1 (Homo sapiens, UniProt P23458).
T3 construct: endogenous in cells; host or cells: Molt4 (ATCC CRL-1582) and Ramos (ATCC CRL-1596), mixed lysate 1:2
The assay can be described thus: Kinobeads assay, JAK1. As to conditions: mixed Molt4/Ramos lysate, read-out: Inhibition values (IC50) JAK1. The protocol: After the incubation time the beads with captured proteins were separated from the lysate. Bound proteins were then eluted and the presence of JAK1, JAK2, JAK3 and TYK2 was detected and quantified using specific antibodies in a dot blot procedure and the Odyssey infrared detection system. Dose response curves for individual kinases were generated and IC50 values calculated.
as §3
Stock solutions of test compounds were prepared in DMSO. […] Starting with this solution a 1:3 dilution series (9 steps) was prepared. For control experiments (no test compound) a buffer containing 2% DMSO was used.
Cells were homogenized in a Potter S homogenizer in lysis buffer: 50 mM Tris-HCl, 0.8% NP40, 5% glycerol, 150 mM NaCl, 1.5 mM MgCl2, 25 mM NaF, 1 mM sodium vanadate, 1 mM DTT, pH 7.5. […] The material was dounced 10 times using a mechanized POTTER S, transferred to 50 mL falcon tubes, incubated for 30 minutes on ice and spun down for 10 minutes at 20,000 g at 4° C. (10,000 rpm in Sorvall SLA600, precooled). […] (33.500 rpm in Ti50.2, precooled). The supernatant was transferred again to a fresh 50 mL falcon tube, the protein concentration was determined by a Bradford assay (BioRad) and samples containing 50 mg of protein per aliquot were prepared. The samples were immediately used for experiments or frozen in liquid nitrogen and stored frozen at −80° C.
Cell lysate (approximately 50 mg protein per plate) was thawed in a water bath at room temperature and then stored on ice. […] The diluted cell lysate was stored on ice. Mixed Molt4/Ramos lysate was prepared by combining one volume of Molt4 lysate and two volumes of Ramos lysate (ratio 1:2).
Plates were sealed and incubated for 3 hours in a cold room on a plate shaker (Heidolph tiramax 1000) at 750 rpm. Afterwards the plate was washed 3 times with 230 μL washing buffer (1×DP 0.4% NP40). […] The eluate was frozen quickly at −80° C. and stored at −20° C.
Afterwards the membrane was washed twice for 10 minutes with PBS buffer containing 0.2% Tween 20 at room temperature. […] Afterwards the membrane was washed twice for 10 minutes each with 1×PBS buffer containing 0.2% Tween 20 at room temperature. Then the membrane was rinsed once with PBS buffer to remove residual Tween 20. The membrane was kept in PBS buffer at 4° C. and then scanned with the Odyssey instrument. Fluorescence signals were recorded and analysed according to the instructions of the manufacturer.

T3 sequence (P23458 whole entry): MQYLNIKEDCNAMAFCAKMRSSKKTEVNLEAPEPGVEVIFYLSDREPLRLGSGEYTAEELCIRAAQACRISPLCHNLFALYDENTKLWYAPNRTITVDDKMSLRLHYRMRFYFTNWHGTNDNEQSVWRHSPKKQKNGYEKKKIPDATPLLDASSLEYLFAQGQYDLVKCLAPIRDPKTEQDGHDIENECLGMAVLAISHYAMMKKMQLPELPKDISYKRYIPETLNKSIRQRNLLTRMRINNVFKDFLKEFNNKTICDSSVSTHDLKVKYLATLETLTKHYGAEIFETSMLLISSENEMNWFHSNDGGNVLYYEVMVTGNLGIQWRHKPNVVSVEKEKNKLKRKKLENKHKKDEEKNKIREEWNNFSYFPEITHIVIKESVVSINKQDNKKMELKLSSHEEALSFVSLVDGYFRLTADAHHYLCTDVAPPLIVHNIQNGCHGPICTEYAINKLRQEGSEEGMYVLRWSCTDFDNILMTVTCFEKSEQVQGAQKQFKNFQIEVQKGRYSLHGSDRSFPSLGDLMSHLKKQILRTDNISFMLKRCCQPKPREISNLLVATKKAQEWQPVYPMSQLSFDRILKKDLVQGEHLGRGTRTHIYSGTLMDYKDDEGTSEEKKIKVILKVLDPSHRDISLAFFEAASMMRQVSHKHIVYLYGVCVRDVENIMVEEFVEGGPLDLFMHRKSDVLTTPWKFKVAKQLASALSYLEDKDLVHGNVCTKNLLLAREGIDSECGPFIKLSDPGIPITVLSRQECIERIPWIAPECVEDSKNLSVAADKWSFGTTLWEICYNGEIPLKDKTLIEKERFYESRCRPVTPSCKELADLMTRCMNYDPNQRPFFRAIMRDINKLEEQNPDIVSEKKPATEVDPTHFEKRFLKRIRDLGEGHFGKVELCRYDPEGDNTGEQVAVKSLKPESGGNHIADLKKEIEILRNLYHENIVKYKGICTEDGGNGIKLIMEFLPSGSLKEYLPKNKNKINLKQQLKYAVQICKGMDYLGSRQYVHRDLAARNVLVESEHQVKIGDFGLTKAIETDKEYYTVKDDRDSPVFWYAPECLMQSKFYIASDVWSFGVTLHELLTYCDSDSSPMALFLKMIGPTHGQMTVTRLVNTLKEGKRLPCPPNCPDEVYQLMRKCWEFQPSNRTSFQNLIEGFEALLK
T2 sequence (P29597 whole entry): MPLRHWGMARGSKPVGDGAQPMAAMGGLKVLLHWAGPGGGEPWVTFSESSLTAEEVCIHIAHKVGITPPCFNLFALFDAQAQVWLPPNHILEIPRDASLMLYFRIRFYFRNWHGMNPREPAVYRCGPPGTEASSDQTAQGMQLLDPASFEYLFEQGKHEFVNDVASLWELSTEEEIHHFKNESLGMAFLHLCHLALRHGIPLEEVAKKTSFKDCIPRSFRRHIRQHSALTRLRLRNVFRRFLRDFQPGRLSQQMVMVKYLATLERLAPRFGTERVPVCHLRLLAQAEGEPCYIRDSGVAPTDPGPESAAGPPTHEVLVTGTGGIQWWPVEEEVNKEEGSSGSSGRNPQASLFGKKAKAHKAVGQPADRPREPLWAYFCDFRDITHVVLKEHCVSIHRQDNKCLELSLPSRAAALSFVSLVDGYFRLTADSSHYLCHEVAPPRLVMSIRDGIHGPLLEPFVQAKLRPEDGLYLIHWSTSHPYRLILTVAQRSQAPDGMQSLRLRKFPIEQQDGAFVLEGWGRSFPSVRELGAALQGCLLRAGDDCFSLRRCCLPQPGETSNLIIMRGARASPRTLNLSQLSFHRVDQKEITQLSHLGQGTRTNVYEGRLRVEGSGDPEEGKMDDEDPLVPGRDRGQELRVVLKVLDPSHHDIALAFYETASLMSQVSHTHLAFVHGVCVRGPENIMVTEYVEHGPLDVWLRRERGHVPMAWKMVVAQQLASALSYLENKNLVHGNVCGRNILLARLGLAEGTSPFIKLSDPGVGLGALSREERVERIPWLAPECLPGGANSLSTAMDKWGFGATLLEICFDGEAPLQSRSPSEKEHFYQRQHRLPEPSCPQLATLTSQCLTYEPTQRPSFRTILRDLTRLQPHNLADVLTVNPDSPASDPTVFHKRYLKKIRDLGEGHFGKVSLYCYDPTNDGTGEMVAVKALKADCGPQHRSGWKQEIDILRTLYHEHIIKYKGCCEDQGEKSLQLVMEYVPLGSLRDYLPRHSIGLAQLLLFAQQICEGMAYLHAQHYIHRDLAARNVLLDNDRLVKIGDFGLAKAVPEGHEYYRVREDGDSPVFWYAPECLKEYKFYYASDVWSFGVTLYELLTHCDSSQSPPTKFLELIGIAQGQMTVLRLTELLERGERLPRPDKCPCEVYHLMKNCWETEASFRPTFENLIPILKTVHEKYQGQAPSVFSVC
T1 sequence (O60674 whole entry): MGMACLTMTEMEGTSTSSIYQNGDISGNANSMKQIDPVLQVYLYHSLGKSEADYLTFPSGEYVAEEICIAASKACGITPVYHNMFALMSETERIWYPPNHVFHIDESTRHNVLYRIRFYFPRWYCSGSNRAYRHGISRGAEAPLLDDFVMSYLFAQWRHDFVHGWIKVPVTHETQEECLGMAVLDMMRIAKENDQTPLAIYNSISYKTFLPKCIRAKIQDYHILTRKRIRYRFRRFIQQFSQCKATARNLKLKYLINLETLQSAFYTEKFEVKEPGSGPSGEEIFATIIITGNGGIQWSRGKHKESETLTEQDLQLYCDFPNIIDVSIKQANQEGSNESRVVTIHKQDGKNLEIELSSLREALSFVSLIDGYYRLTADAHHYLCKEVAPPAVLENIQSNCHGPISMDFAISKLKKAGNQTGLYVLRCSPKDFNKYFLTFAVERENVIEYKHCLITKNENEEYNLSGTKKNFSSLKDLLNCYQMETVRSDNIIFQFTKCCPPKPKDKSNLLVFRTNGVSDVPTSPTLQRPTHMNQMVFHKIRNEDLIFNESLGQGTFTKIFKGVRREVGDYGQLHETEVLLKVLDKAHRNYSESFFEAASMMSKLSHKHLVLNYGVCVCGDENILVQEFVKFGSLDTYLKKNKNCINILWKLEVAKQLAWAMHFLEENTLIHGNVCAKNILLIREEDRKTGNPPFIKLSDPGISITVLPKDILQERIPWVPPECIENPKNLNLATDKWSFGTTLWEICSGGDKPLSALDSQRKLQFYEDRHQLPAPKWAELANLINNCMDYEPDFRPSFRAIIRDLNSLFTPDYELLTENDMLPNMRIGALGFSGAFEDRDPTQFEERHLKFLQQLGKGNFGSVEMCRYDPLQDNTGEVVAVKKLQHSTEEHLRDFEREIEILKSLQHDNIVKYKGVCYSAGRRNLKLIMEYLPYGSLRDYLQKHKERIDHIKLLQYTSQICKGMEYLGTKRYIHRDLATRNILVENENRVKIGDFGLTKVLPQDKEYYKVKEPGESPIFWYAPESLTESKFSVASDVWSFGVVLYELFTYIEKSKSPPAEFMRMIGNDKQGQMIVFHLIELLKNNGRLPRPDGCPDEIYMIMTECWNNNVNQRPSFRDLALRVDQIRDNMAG

`Cn1cc(Nc2ncc(Cl)c(N[C@H](CO)c3cc(F)ccc3F)n2)cn1` [Compound 139]: the IC50 at JAK2, at TYK2 and at JAK1 was 100 to 1000 nM each time.
Take `NC(=O)Cn1cc(Nc2ncc(Cl)c(N[C@H](CO)c3cc(F)ccc3F)n2)cn1` [Compound 140]: the figures for the IC50 on JAK2, at TYK2 and at JAK1 were 100 to 1000 nM, 100 to 1000 nM and under 100 nM, respectively.
Turning to `CNC(=O)Cn1cc(Nc2ncc(Cl)c(N[C@H](CO)c3cc(F)ccc3F)n2)cn1` [Compound 141], the IC50 on JAK2 is 100 to 1000 nM; on TYK2, 100 to 1000 nM; on JAK1, under 100 nM.
For `Cn1cc(Nc2ncc(Cl)c(N[C@H](CO)c3cc(F)cc(F)c3)n2)cn1` [Compound 142], the IC50 fell in the range of 100 to 1000 nM at JAK2, 1000 to 10000 nM on TYK2 and 100 to 1000 nM on JAK1.
As to `OCCn1cc(Nc2ncc(Cl)c(N[C@H](CO)c3cc(F)cc(F)c3)n2)cn1` [Compound 143], the IC50 at JAK2 was 100 to 1000 nM; at TYK2, 100 to 1000 nM; on JAK1, under 100 nM.
For the compound `NC(=O)Cn1cc(Nc2ncc(Cl)c(N[C@H](CO)c3cc(F)cc(F)c3)n2)cn1` [Compound 144], the IC50 on JAK2 is 100 to 1000 nM; on TYK2, 100 to 1000 nM; on JAK1, under 100 nM.
Regarding `CNC(=O)Cn1cc(Nc2ncc(Cl)c(N[C@H](CO)c3cc(F)cc(F)c3)n2)cn1` [Compound 145], the IC50 was 100 to 1000 nM at JAK2, 100 to 1000 nM at TYK2 and under 100 nM on JAK1.
For `Cn1cc(Nc2ncc(F)c(N[C@H](CO)c3cc(F)ccc3F)n2)cn1` [Compound 146], the IC50 on JAK2 fell in the range of 1000 to 10000 nM; at TYK2, 100 to 1000 nM; on JAK1, 100 to 1000 nM.
For the compound `OCCn1cc(Nc2ncc(F)c(N[C@H](CO)c3cc(F)ccc3F)n2)cn1` [Compound 147], the IC50 at JAK2, at TYK2 and at JAK1 was 100 to 1000 nM in each case.
Take `CNC(=O)Cn1cc(Nc2ncc(F)c(N[C@H](CO)c3cc(F)ccc3F)n2)cn1` [Compound 148]: the IC50 on JAK2 was 1000 to 10000 nM; at TYK2 it was 100 to 1000 nM; at JAK1, 100 to 1000 nM.
For `Cc1cnc(Nc2cnn(C)c2)nc1N[C@H](CO)c1cccc(-c2cnn(C)c2)c1` [Compound 149], the results for the IC50 on JAK2, at TYK2 and at JAK1 were at least 10000 nM, at least 10000 nM and over 10000 nM, respectively.
As for `Cn1cc(Nc2ncc(F)c(N[C@H](CO)c3cc(F)cc(-c4cnn(C)c4)c3)n2)cn1` [Compound 150], the IC50 on JAK2 was at least 10000 nM; on TYK2 it was at least 10000 nM; on JAK1, 1000 to 10000 nM.
Turning to `Cn1cc(-c2cccc([C@@H](CO)Nc3nc(Nc4cnn(CCO)c4)ncc3Cl)c2)cn1` [Compound 151], the IC50 was at least 10000 nM on JAK2, at least 10000 nM on TYK2 and 1000 to 10000 nM at JAK1.
Consider `Cn1cc(-c2cc(F)cc([C@@H](CO)Nc3nc(Nc4cnn(CCO)c4)ncc3Cl)c2)cn1` [Compound 152], for which the IC50 on JAK2 was 1000 to 10000 nM; at TYK2 it was 1000 to 10000 nM; at JAK1 it was 100 to 1000 nM.
Turning to `Cn1cc(-c2cc(F)cc([C@@H](CO)Nc3nc(Nc4cnn(CCO)c4)ncc3F)c2)cn1` [Compound 153], the IC50 at JAK2 was at least 10000 nM; at TYK2, at least 10000 nM; on JAK1, 1000 to 10000 nM.
Consider `CNC(=O)Cn1cc(Nc2ncc(Cl)c(N[C@H](CO)c3cccc(-c4cnn(C)c4)c3)n2)cn1` [Compound 154], for which the IC50 fell in the range of 1000 to 10000 nM at JAK2, 100 to 1000 nM on TYK2 and 1000 to 10000 nM on JAK1.
Consider `CNC(=O)Cn1cc(Nc2ncc(F)c(N[C@H](CO)c3cccc(-c4cnn(C)c4)c3)n2)cn1` [Compound 155], for which the IC50 at JAK2 was at least 10000 nM; on TYK2, at least 10000 nM; at JAK1, over 10000 nM.
`CNC(=O)Cn1cc(Nc2ncc(Cl)c(N[C@H](CO)c3cc(F)cc(-c4cnn(C)c4)c3)n2)cn1` [Compound 156]: the IC50 on JAK2 was 1000 to 10000 nM; at TYK2, at least 10000 nM; at JAK1 it was 1000 to 10000 nM.
Regarding `CNC(=O)Cn1cc(Nc2ncc(F)c(N[C@H](CO)c3cc(F)cc(-c4cnn(C)c4)c3)n2)cn1` [Compound 157], the values for the IC50 on JAK2, on TYK2 and at JAK1 were at least 10000 nM, at least 10000 nM and 1000 to 10000 nM, respectively.
Consider `Cn1cc(Nc2ncc(F)c(N[C@H](CO)c3cc(F)cc(F)c3)n2)cn1` [Compound 158], for which the IC50 at JAK2, on TYK2 and at JAK1 was 1000 to 10000 nM each time.
On to `OCCn1cc(Nc2ncc(F)c(N[C@H](CO)c3cc(F)cc(F)c3)n2)cn1` [Compound 159], for which the IC50 on JAK2 is 1000 to 10000 nM; at TYK2 it was 100 to 1000 nM; on JAK1 it was 100 to 1000 nM.
On to `NC(=O)Cn1cc(Nc2ncc(F)c(N[C@H](CO)c3cc(F)cc(F)c3)n2)cn1` [Compound 160], for which the IC50 on JAK2 lay in the range of 1000 to 10000 nM; at TYK2 it was 100 to 1000 nM; on JAK1, 100 to 1000 nM.
With `CNC(=O)Cn1cc(Nc2ncc(F)c(N[C@H](CO)c3cc(F)cc(F)c3)n2)cn1` [Compound 161], the IC50 was 1000 to 10000 nM on JAK2, 100 to 1000 nM on TYK2 and 100 to 1000 nM at JAK1.
Turning to `Cn1cc(Nc2ncc(Cl)c(N[C@H](CO)c3cccc(N4CCOCC4=O)c3F)n2)cn1` [Compound 162], the IC50 was at least 10000 nM at JAK2, at least 10000 nM on TYK2 and 1000 to 10000 nM on JAK1.
For the compound `Cc1cnc(Nc2cnn(C)c2)nc1N[C@H](CO)c1cc(F)ccc1F` [Compound 163], the IC50 at JAK2, on TYK2 and at JAK1 was 100 to 1000 nM in each case.
